Where a name gives a salt, the structure may show the parent alone.
What was measured:
CRF1 receptor = molecular target: T1, CRF1 receptor (Homo sapiens, UniProt P34998); assay: CRF1 Receptor Binding Assay; settings: competition binding with [125I]Tyr0-ovine CRF, human IMR-32 neuroblastoma cell membranes; pKi derived from pIC50
T1 construct: Cell membranes are prepared according the method of Dieterich and DeSouza (1996); endogenous in cells; host or cells: IMR-32 human neuroblastoma cells (membrane preparation)
T1 sequence (P34998 24-415): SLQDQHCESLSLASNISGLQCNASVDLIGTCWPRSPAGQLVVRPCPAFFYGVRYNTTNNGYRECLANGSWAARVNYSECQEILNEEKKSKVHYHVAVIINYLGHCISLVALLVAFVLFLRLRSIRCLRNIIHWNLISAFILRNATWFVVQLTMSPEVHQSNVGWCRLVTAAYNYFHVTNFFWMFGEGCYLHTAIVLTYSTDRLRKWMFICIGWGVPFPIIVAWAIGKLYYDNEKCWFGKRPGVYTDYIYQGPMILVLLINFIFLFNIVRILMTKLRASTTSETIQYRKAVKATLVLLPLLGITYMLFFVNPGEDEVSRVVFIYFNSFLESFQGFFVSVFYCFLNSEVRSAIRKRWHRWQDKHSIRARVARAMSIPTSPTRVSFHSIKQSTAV
Description: CRF1 Receptor Binding Assay
Human IMR-32 neuroblastoma cells are grown to 80% confluence in MEM medium containing 10% heat-inactivated FBS, lmM Sodium Pyruvate, and 0.1 mM nonessential amino acids. Cell membranes are prepared according the method of Dieterich and DeSouza (1996). The cells (˜5E+9) are resuspended in 10 volumes of wash buffer (5 mM Tris HCl, 10 mM MgCl2, 2 mM EGTA, pH 7.4 at RT), homogenized with a Polytron, and then centrifuged at 45,000 G for 20 min at 4° C. The membrane pellets are washed twice with wash buffer (45,000 G for 20 min at 4° C.) and then resuspended (50 mM Tris HCl, 10 mM MgCl2, 2 mM EGTA, pH 7.4 at RT). Protein concentration is determined using Pierce reagents and BSA as standard. Aliquots of 1-1.5 mL are stored at −80° C. until binding assay.
The competition binding assay is performed in a final volume of 250 μl, which contains assay buffer (50 mM Tris-HCl, 10 mM MgCl2, 2 mM EGTA, 0.2% BSA, 0.1 mM bacitracin and 100 kIU/mL aprotinin pH 7.2 at R.T.), 0.05 nM [^125I]Tyr^0-ovine CRF (Du Pont New England Nuclear), 50 μg of membrane protein, and test compound at various concentrations. Non-specific binding is determined with 1 uM hCRF. Binding reactions are terminated after 2 hr incubation at 25° C. by filtering through 96-w GF/C filter plate using a Packard Harvester (Filtermate 196). The 96-w filter plate is pre-treated with 0.3% polyethyleneimine and pre-washed with washing buffer (50 mM Tris-HCl, 10 mM MgCl2, 2 mM EGTA, 0.2% BSA, pH 7.2 at 4° C.). Unbound radioactivity is removed by four rapid washes (0.8 ml/well) with wash buffer. The radioactivity is quantified using a Packard TopCount. Data are analyzed using non-linear iterative curve fitting to obtain IC50 and Hill slope values. PKi values are derived from pIC50 values (−log of IC50).

SMILES	melting point [°C]	Ki (CRF1 receptor) [nM]
Cc1ccn(-c2cc(Nc3c(Cl)cc(Cl)cc3Cl)nc(C)n2)n1 (as salt: hydrochloride) [[2-Methyl-6-(3-methyl-pyrazol-1-yl)-pyrimidin-4-yl]-(2,4,6-trichloro-phenyl)-amine]	245 to 247	
CCCc1ccn(-c2nc(C)nc(Nc3c(Cl)cc(Cl)cc3Cl)c2C)n1 [[2,5-Dimethyl-6-(3-propyl-pyrazol-1-yl)-pyrimidin-4-yl]-(2,4,6-trichloro-phenyl)-amine]		1620
Cc1ccn(-c2cc(Nc3c(Cl)cc(Cl)cc3Cl)nc(C)n2)n1 [[2-Methyl-6-(3-methyl-pyrazol-1-yl)-pyrimidin-4-yl]-(2,4,6-trichloro-phenyl)-amine]		1070
Cc1cn(-c2nc(C)nc(Nc3c(Cl)cc(Cl)cc3Cl)c2Cl)cn1 [[5-Chloro-2-methyl-6-(4-methyl-imidazol-1-yl)-pyrimidin-4-yl]-(2,4,6-trichloro-phenyl)-amine]		1910

Source: patent publication US7414059B2, “Pyrazolyl and imidazolyl pyrimidines as CRF antagonists” (Roche Palo Alto LLC, priority 2003, dated 2008)
